From PubChem BioAssay AID493102 (Broad Institute, 2011)

Tested on: SK-MEL-5 TRPM1-promoter luciferase reporter, 24 h
Assay: reducers of TRPM1 reporter luminescence, concentration series – cell-based, SK-MEL-5, cherry-picked, set 4, MITF inhibitor project, dose response (AID 493102);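 also: actives lower the luciferase signal so the potency reflects inhibition of reporter expression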

SMILES | AC50
Cc1cc(C(=O)COc2cccnc2[N+](=O)[O-])c(C)n1-c1ccccc1 | 1.48 µM
CCS(=O)(=O)c1ccc(N=Nc2ccc(O)c3ncccc23)c(OC)c1 | 9.23 µM
COc1cccc(-c2nnc3n2N=C(C(C)(C)C)CS3)c1 | 4.82 µM
O=C(Nc1ccc(Nc2ccncc2)cc1)c1ccc([N+](=O)[O-])cc1 | 7.22 µM
Cc1ccc(-c2c[n+](Cc3ccc(Cl)c(Cl)c3)c3n2CCC3)cc1 | 3.73 µM
N#CCc1ccc(NC(=O)/C=C/c2ccc([N+](=O)[O-])o2)cc1 | 4.97 µM
Cc1ccc(Cn2c(=N)n(CC(=O)c3ccc([N+](=O)[O-])cc3)c3ccccc32)cc1 | 6.42 µM
COc1ccc2c(C)nc(Nc3nc(-c4ccccc4)cc(=O)[nH]3)nc2c1 | 2.91 µM
COCCN(CC(=O)NC1CCCCC1)C(=O)/C=C/C(=O)c1ccc(OC)cc1O | 5.48 µM
CS(=O)(=O)c1nc(-c2ccc(F)cc2)cc(C(F)(F)F)n1 | 7.2 µM
O=C(/C=C\c1ccccc1)NCC(=O)N/N=C/c1ccc(O)cc1O | 7.99 µM
Cc1cc(C)cc(N2C(=O)NC(=O)/C(=C\C=C\c3ccco3)C2=O)c1 | 4.88 µM
OCC1OC(n2cnc3c(NCc4ccco4)ncnc32)C(O)C1O (stereo not given) | 3.88 µM
COc1ccc(NC(C)C(=O)N/N=C/c2ccc([N+](=O)[O-])s2)cc1 (stereo not given) | 15.8 µM
O=C(COc1ccccc1)N/N=C/c1ccc([N+](=O)[O-])o1 | 21.5 µM
COc1cccc(C(=O)Nc2ccc3c(cc2=O)[C@@H](NC(C)=O)CCc2cc(OC)c(OC)c(OC)c2-3)c1 | 8.43 µM
Cc1cc(C(=O)N/N=C/c2ccc([N+](=O)[O-])o2)c(C)o1 | 4.79 µM
Cc1cc(C)c(C#N)c(SCc2nnc(-c3ccccc3)o2)n1 | 0.024 µM
COc1cccc(CNCCc2c[nH]c3ccccc23)c1OCc1ccccc1 | 14.4 µM
Nc1c(N(CCC2=CCCCC2)C(=O)COc2ccc([N+](=O)[O-])cc2)c(=O)[nH]c(=O)n1Cc1ccccc1 | 14.2 µM
CN1C(=O)/C(=C/c2cccn2-c2ccc3ccccc3c2)C(=O)NC1=S | 9.42 µM
CC1CCC(C(C)C)C(OC(=O)Cn2c(-c3ccc(Br)cc3)[n+](C)c3ccccc32)C1 (stereo not given) | 7.12 µM
CC1CCCCC1NC(=O)/C(C#N)=C/c1ccccc1F (stereo not given) | 14.4 µM
C/C(=N\NC(=O)Cc1ccc(Cl)cc1)c1ccccn1 | 4.22 µM
N=c1n(Cc2ccc(Cl)cc2)c2ccccc2n1CC(O)COc1ccccc1 (stereo not given) | 9.25 µM
Cc1ccc(-c2c[n+](Cc3cccc(Cl)c3)c3n2CCC3)cc1 | 12.2 µM
COc1cccc2sc(N(CCCN(C)C)C(=O)C(c3ccccc3)c3ccccc3)nc12 | 15.1 µM
Cc1ccc(-c2nnc(SCC(=O)Nc3ccccc3F)o2)cc1 | 2.3 µM

SMILES | AC50
O=C(CNc1cccc2ccccc12)N/N=C/c1ccc([N+](=O)[O-])o1 | 5.04 µM
CC(/C=C1\SC(=O)N(CCCC(=O)O)C1=O)=C\c1ccccc1 | 2.36 µM
COc1ccc(-c2nn(-c3ccccc3)cc2/C=N/N=C(N)N)cc1OC | 14.6 µM
O=C(Nc1ccc(N2CCN(C(=O)c3ccccc3)CC2)cc1)c1ccc([N+](=O)[O-])o1 | 17.9 µM
COc1cccc(N2CCN(C(=O)c3ccc(CS(=O)c4ccccc4Cl)o3)CC2)c1 (stereo not given) | 0.894 µM
COc1cc(C(=O)Oc2c(CN3CCOCC3)cc(Cl)c3cccnc23)cc(OC)c1OC | 7.56 µM
Cc1ccc(C)c(S(=O)(=O)N2CCN(Cc3ccc(O)c4ncccc34)CC2)c1 | 4.44 µM
O=C(/C=C/c1ccccc1)Nc1cccc(C(=O)O)c1 | 1.52 µM
O=[N+]([O-])c1ccc(Sc2cc[n+]([O-])c3ccccc23)c([N+](=O)[O-])c1 | 5.92 µM
CN=c1scc(-c2ccccc2F)n1/N=C/c1ccc[nH]1 | 0.019 µM
Cc1ccc(C)c(NC(=O)/C(C#N)=C/c2cn(CC(=O)NCc3ccco3)c3ccccc23)c1 | 6.56 µM
Cc1ccc(-c2cn3cc(C)ccc3n2)cc1 | 2.03 µM
N#C/C(=C(/O)CCl)c1nc2ccccc2[nH]1 | 4.6 µM
Cc1ccc(OCC(=O)N/N=C/c2ccc([N+](=O)[O-])o2)cc1 | 8.9 µM
O=C(Nc1ccc(S(=O)(=O)NC2=NCCCCC2)cc1)c1ccc([N+](=O)[O-])s1 | 5.11 µM
O=C(CNC(=O)c1ccccc1)N/N=C/c1ccc([N+](=O)[O-])s1 | 5.34 µM
O=C1c2cc([N+](=O)[O-])cc3cc([N+](=O)[O-])cc(c23)C(=O)N1c1ccccn1 | 7.92 µM
COc1ccc(CNCCC(c2ccc(F)cc2)c2ccc(OC)cc2)cc1 (stereo not given) | 9.89 µM
COc1cc(SC)ccc1C(=O)Nc1nc(C)cs1 | 4.81 µM
Cc1ccc(-n2[nH]c(=O)c(-c3ccccn3)c2C)cc1 | 3.23 µM
O=C(CCl)Nc1cccc(S(=O)(=O)N2CCCCCC2)c1 | 11.8 µM
CCN1CCN(c2ccc(S(=O)(=O)N3CCOCC3)cc2NC(=O)/C=C/c2ccc([N+](=O)[O-])cc2)CC1 | 8.13 µM
Cc1cc(C)c2nc3nc(C)cc(C)c3c(N)c2c1 | 5.72 µM
O=C(O)c1cccc(N/N=C/c2ccc(OC(F)(F)F)cc2)c1 | 5.95 µM
Cn1cc([N+](=O)[O-])c(C(=O)Nc2cc(Oc3ccccc3)cc([N+](=O)[O-])c2)n1 | 12.4 µM
O=C(O)c1cccc(COc2ccccc2Cl)c1 | 0.756 µM
CC(C)N1C/C(=C/c2cccnc2)C(=O)/C(=C/c2cccnc2)C1 | 14.2 µM
